Measured values: patent US20090054368A1, “Substituted gemini surfactant compounds” (University of Saskatchewan, priority 2007, published 2009)
Values joined by “and” are separate entries in the source; they are usually repeats but may differ in a detail not shown here. Equal values may be shown once. “Also recorded” adds a separate entry of the source.

How the values were obtained:
[1] = test system: DNA; assay: Binding constant between py-s-12 surfactants and DNA from changes in the UV spectrum of the pyrene moiety; design: species or system salmon; details: estimated from changes in the UV spectrum of the pyrene moiety
Excerpt: Similar to a series of peptide substituted pyrene compounds described in [51], the S1-S0, S2-S0, and S3-S0 transitions have lambdamax values of 376, 343, and 276 nm, respectively. The broadening of the absorbance bands of pyrene, the red shift in the absorbance band, and the observed hyperchromism in the presence of DNA are evidence of complexed pyrene compounds Quantitative estimates of the binding constants between py-s-12 surfactants and DNA were obtained by monitoring changes in the UV spectrum of the pyrene moiety. The binding constant for py-3-12 and DNA was estimated to be 5.9×10^3 L mol^−1 and that of py-6-12 was 1.9×10^4 L mol^−1. The stronger binding of py-6-12 to DNA implied that the distance between the cationic head groups is more suitable to electrostatically bind to DNA.
Pyrene, 6-bromohexanoyl chloride, anhydrous aluminum chloride, triethylsilane, trifluoroacetatic acid, N,N,N′,N′-tetramethylpropanediamine, N,N,N′,N′-tetramethylhexanediamine, and 1-bromododecane were purchased from Aldrich Inc. All solutions were prepared using analytical-grade water obtained from a Millipore Milli-Q filtration system. The sodium salt of double-stranded (ds) salmon sperm DNA (about 2 kbp, as stated by the manufacturer, Sigma) was used as received. […]

[2] = from reference [24]; cited from earlier work
[3] = Average membrane charge density calculation for plasmid DNA-gemini surfactant-DOPE nanoparticles; assay type: physicochemical; details: calculated from head group areas
[4] = Small angle X-ray scattering (SAXS) of plasmid DNA-gemini surfactant-DOPE complexes; assay type: physicochemical; details: for d-spacing of main scattering peak / phase / morphology of lipid bilayers from scattering pattern (in words) / d-spacing of adjacent DNA molecules: plasmid DNA-gemini surfactant-DOPE complexes; for d-spacing of adjacent DNA molecules: weak peaks at q=0.172 Å^−1; for scattering peak position q, DNA: scattering from adjacent DNA molecules
Experimental: SAXS measurements were carried out at beamline X21 at the National Synchrotron Light Source at Brookhaven National Laboratory. Beamline X21 is based on a wiggler source, with a helium gas-cooled Si(111) monochromator selecting the photon energy. The X-ray beam is focused by a toroidal mirror into the experimental station. Three pairs of precision slits, positioned at 4 m, 1 m, and 5 cm upstream of the sample, define the beam. The scattering pattern is recorded using a 13 cm Mar CCD detector (Mar USA, Evanston, Ill.) located 1.26 m (calibrated with the scattering pattern of silver behenate) downstream of the sample. The measurements were performed with 12 KeV x-rays and the data covered a q-range from 0.008 Å^−1 to 0.375 Å^−1. All beam paths are under vacuum, except at the sample position, where the sample is in air, and kapton windows terminate the vacuum beam paths. Samples were loaded into 1.5 mm capillaries (Charles Supper #15-BG, Natick Mass.) and data recorded at room temperature. All spectra were processed to remove background contributions by subtracting the scattering profile obtained for a water-filled capillary. Peak fitting was carried out using the open-sources software package “fityk” (available at http://www.unipress.waw.pl/fityk/; last accessed on Jul. 5, 2007) using multiple Gaussian functions.
Solutions for SAXS analysis were prepared by addition of appropriate amounts of stock surfactant, DNA, and DOPE solutions, followed by sonication (to ensure complete mixing) where appropriate. The pGTmCMV.IFN-GFP plasmid DNA was used in the SAXS studies. The final concentrations of DNA and DOPE were 0.075 mM (50 μg/mL) and 1.00 mM (0.75 mg/mL), respectively. The concentration of gemini surfactant was adjusted as needed to obtain the desired 1:10 DNA:surfactant charge ratio. Preliminary x-ray scattering studies indicated these concentrations to be too dilute to give good scattering signals; as a result, the samples were concentrated 5× by evaporation.

[5] = test system: cultured cells; assay: Viability of cells following transfection; assay type: cell-based; details: after transfection with plasmid DNA-gemini surfactant-DOPE or Lipofectamine Plus; relative to controls (no treatment or plasmid DNA alone)
Experimental: Ideal transfection reagents are minimally toxic and/or disruptive to cells. Accordingly, the N-substituted surfactants were tested for toxicity in cultured cells. The viability of cells following transfection with either plasmid DNA-gemini surfactant-DOPE or Lipofectamine Plus are shown in FIG. 3. The aza-substituted surfactants 12-5N-12, 12-8N-12, and 12-7N-12 had similar toxicity compared to the Lipofectamine Plus reagent, with cell viability around 80% of the controls (i.e., no treatment or plasmid DNA alone; p>0.05).

[6] = test system: COS-7 African Green monkey kidney fibroblast cells; assay: Transfection assay (luciferase production after transfection with plasmid DNA-gemini surfactant complexes); assay type: cell-based; details: PG complexes, complexed with DNA in the absence of helper lipid (DOPE)
[7] = test system: COS-7 African Green monkey kidney fibroblast cells; assay: as above; assay type: cell-based; details: PGL complexes, with DOPE added
Experimental: COS-7 African Green monkey kidney fibroblast cells (ATCC CRL1651) were prepared for transfection in antibiotic and 10% fetal bovine serum supplemented minimal Eagle's medium (MEM). The day before transfection, 5×10^4 cells/well were seeded in 24-well plates (Greiner Labortechnik GmbH, Germany). The supplemented MEM was changed to MEM one hour prior to transfection.
The pMASIA.Luc plasmid DNA was used at a concentration of 0.2 μg/well for transfection. The transfection mixtures were prepared as follows: 0.2 μg of plasmid DNA was mixed with aliquots of gemini surfactant solution to obtain a plasmid DNA:gemini surfactant charge ratio of 1:10 and incubated at room temperature for 15 minutes. To this mixture, 25 μL of DOPE liposomes were added. The transfection mixtures were incubated for 30 minutes at room temperature prior to transfection and added to the cells, dropwise. The plates were incubated for 5 hours at 37° C. in a CO2 incubator. Dc-Chol (30-[N—(N′,N′-Dimethylaminoethane)-carbamoyl]cholesterol) was used for comparison and, as a positive control, cells were also transfected with Lipofectamine Plus™ Reagent (Invitrogen Life Technologies, Carlsbad, Calif.), according to the manufacturer's protocol, with 0.2 μg of plasmid DNA per well.
Luciferase production was quantified using the Promega Steady-Glo™ luciferase assay system. Luminescence was monitored using a Turner Biosystems (Sunnyvale, Calif., USA) Reporter microplate luminometer. Statistical analysis was performed using ANOVA and Tukey's multiple comparison test. […] Equal variances were tested using Bartlett's test, and normality by the D'Agostino & Pearson omnibus normality test.

[8] = Size (hydrodynamic radius) and zeta potential as a function of pH; assay type: physicochemical; details: PGL complexes
Experimental: Determinations of size (hydrodynamic radius, RH) and zeta potential (ζ) as a function of pH were carried out using a Malvern Instruments (Worcestershire, UK) ZetaSizer NanoZs with MPT-2 auto-titrator attachment. 10 mL of the desired sample was placed in the titration cell of the auto-titrator and samples were titrated (in 0.2-0.5 pH unit increments) with 0.1 M NaOH and 0.1 M HCl over the desired pH range. Size and zeta potential measurement were made in triplicate at each pH point, and the reported values represent the average±standard error. pH titrations of aqueous gemini surfactant solutions were made at a surfactant concentration of 2.00 mM, above the critical micelle concentration in all cases.
Solutions for size, zeta potential, and circular dichrosicm (CD) measurements were prepared, in larger volumes, as described above for the transfection experiments using a pGTmCMV.IFN-GFP plasmid DNA, previously constructed in our lab. Solutions containing only surfactant and plasmid DNA were prepared by addition of an aliquot of stock plasmid DNA to the gemini surfactant solution to a charge ratio of 1:10 (DNA:surfactant).

[9] = plasmid DNA-gemini surfactant-DOPE systems

| Compound | membrane charge density σM [3] | d-spacing of main scattering peak [4] | phase / morphology of lipid bilayers from scattering pattern (in words) [4] | scattering peak position q, lamellar (L) phase [4, 9] | scattering peak position q, DNA [4, 9] | Head group area a0 [2] | cell viability [5] | transfection efficiency (in words) [6] | transfection efficiency (in words) [7] | also measured |
| --- | --- | --- | --- | --- | --- | --- | --- | --- | --- | --- |
| CCCCCCCCCCCC[N+](C)(C)CCCCCC[N+](C)(C)CCCCCCc1ccc2ccc3cccc4ccc1c2c34.[Br-].[Br-] [py-6-12, N1-dodecyl,N1,N1,N6,N6-tetramethyl-N6-(6-(pyren-6-yl)-hexyl)hexane-1,6-diammonium dibromide] |  |  |  |  |  |  |  |  |  | binding constant with DNA [1]: 19000 L/mol |
| CCCCCCCCCCCC[N+](C)(C)CC[N+](C)(C)CCCCCCCCCCCC.[Br-].[Br-] [12-2-12, reference compound] | 1.43 ×10^−2 e/Å^2 | 61.7 Å | lamellar (L) phase | 0.203 (L) Å^−1 and 0.102 Å^−1 | 0.172 Å^−1 | 0.89 ± 0.05 nm^2/molecule |  |  |  | d-spacing of adjacent DNA molecules [4]: 36.5 Å |
| CCCCCCCCCCCC[N+](C)(C)CCC[N+](C)(C)CCCCCCc1ccc2ccc3cccc4ccc1c2c34.[Br-].[Br-] [py-3-12, N1-dodecyl,N1,N1,N3,N3-tetramethyl-N3-(6-(pyren-6-yl)-hexyl)propane-1,3-diammonium dibromide] |  |  |  |  |  |  |  |  |  | binding constant with DNA [1]: 5900 L/mol |
| CCCCCCCCCCCC[N+](C)(C)CC(O)C(O)C[N+](C)(C)CCCCCCCCCCCC.[Br-].[Br-] (centres unmarked) [12-4(OH)2-12] |  |  | mixed lamellar, hexagonal, and cubic phases |  |  |  |  |  | enhanced transfection efficiency compared to 12-3-12; also recorded: higher levels of transfection efficiency compared to the non-substituted gemini surfactant 12-3-12 |  |
| CCCCCCCCCCCC[N+](C)(C)CCOCC[N+](C)(C)CCCCCCCCCCCC.[Br-].[Br-] [12-E01-12] |  |  | mixed lamellar, hexagonal, and cubic phases |  |  |  |  |  | enhanced transfection efficiency compared to 12-3-12; also recorded: higher levels of transfection efficiency compared to the non-substituted gemini surfactant 12-3-12 |  |

Second part, led by results:

| membrane charge density σM [3] | d-spacing of main scattering peak [4] | phase / morphology of lipid bilayers from scattering pattern (in words) [4] | scattering peak position q, lamellar (L) phase [4, 9] | scattering peak position q, DNA [4, 9] | Compound | Head group area a0 [2] | cell viability [5] | transfection efficiency (in words) [6] | transfection efficiency (in words) [7] | also measured |
| --- | --- | --- | --- | --- | --- | --- | --- | --- | --- | --- |
| 0.780 ×10^−2 e/Å^2 | 59.6 Å | lamellar structure | 0.105 Å^−1 and 0.210 (L) Å^−1 | 0.170 Å^−1 and 0.169 (DNA), Å^−1 | CCCCCCCCCCCC[N+](C)(C)CCN(C)CCN(C)CC[N+](C)(C)CCCCCCCCCCCC [12-8N-12] | 1.95 ± 0.13 nm^2/molecule | around 80% | similarly low transfection efficiency compared to 12-3-12 |  | scattering peak position q, no phase assigned [4, 9]: 0.119 Å^−1 |
| 1.05 ×10^−2 e/Å^2 | 58.6 Å | lamellar (L) phase | 0.107 Å^−1 and 0.207 (L) Å^−1 | 0.172 Å^−1 and 0.173 Å^−1 | CCCCCCCCCCCC[N+](C)(C)CCN(C)CC[N+](C)(C)CCCCCCCCCCCC [12-5N-12] | 1.30 ± 0.03 nm^2/molecule | around 80% | similarly low transfection efficiency compared to 12-3-12 | enhanced transfection efficiency compared to the un-substituted surfactant, 12-3-12; also recorded: higher levels of transfection efficiency compared to the non-substituted gemini surfactant 12-3-12 | d-spacing of adjacent DNA molecules [4]: 36.5 Å; transfection efficiency (in words) ([7]; listed as 125N-12): less efficient in DNA transfection |
| 0.748 ×10^−2 e/Å^2 | 59.6 Å |  |  |  | CCCCCCCCCCCC[N+](C)(C)CCCN(C)CCC[N+](C)(C)CCCCCCCCCCCC.[Br-].[Br-] [12-7N-12, 1,9-bis(dodecyl)-1,1,5,9,9-pentamethyl-5-aza-1,9,-nonanediammonium dibromide] | 2.06 ± 0.20 nm^2/molecule | around 80% | similarly low transfection efficiency compared to 12-3-12 | enhanced transfection efficiency compared to the un-substituted surfactant, 12-3-12; also recorded: higher levels of transfection efficiency compared to the non-substituted gemini surfactant 12-3-12; also recorded: most efficient aza-substituted surfactant; also recorded: highest | pH dependence of particle size (in words) [8]: remained essentially unchanged; pH dependence of zeta potential (in words) [8]: increased as a function of decreasing pH |
